The target of series [1] is Glycogen synthase kinase-3 beta (Homo sapiens, UniProt P49841). The series is described as follows: Inhibition of human recombinant GSK3beta using prephosphorylated GS1 peptide as substrate after 1 hr by liquid scintillation spectrometry.
The test system of series [2] is Rattus norvegicus. The series is described as follows: Reduction in tau protein phosphorylation in Wistar rat prefrontal cortex at 100 mg/kg, ip after 15 mins to 2 hrs by western blot analysis relative to vehicle-treated control. It is filed as functional. On the set-up: scale not given: the % may be the effect or the level left. The following applies: route intraperitoneal. On the technique in general: A western blot detects proteins with antibodies after separation by electrophoresis.

Series [3] deals with Brain. The series is described as follows: Drug uptake in Wistar rat brain at 30 mg/kg, ip measured at 0.25 hrs. Format: ADME, organism-based. On the set-up: dose 30 mg/kg, route intraperitoneal. The following applies: in vivo.
Series [4] in a line: Permeability co-efficient in Wistar rat brain at 30 mg/kg, ip measured at 0.25 hrs. Details: dose 30 mg/kg, route intraperitoneal. Format: ADME, organism-based.
Series [5] in a line: Clearance in rat microsomes. It is filed as ADME, Microsome.
The nature of series [6]: Inhibition of CYP1A (unknown origin). Format: ADME, Homo sapiens.

Glycogen synthase kinase-3 beta, sequence (P49841 whole entry): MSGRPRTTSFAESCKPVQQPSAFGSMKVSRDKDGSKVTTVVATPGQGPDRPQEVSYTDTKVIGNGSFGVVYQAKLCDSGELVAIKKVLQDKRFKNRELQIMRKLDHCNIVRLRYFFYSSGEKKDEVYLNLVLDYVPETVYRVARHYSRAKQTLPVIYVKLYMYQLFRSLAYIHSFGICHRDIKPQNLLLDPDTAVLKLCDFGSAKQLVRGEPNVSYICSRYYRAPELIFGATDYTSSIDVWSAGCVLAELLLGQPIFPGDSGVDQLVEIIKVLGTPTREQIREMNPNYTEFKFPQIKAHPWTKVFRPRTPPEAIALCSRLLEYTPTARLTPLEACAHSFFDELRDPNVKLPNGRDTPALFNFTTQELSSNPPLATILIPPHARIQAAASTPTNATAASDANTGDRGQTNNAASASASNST

Turning to `Cn1c(NCC(=O)c2ccccc2)nc(-c2ccncc2)cc1=O`, the IC50 in series [1] came out at 8.9 nM; in series [6], 5700 nM. This compound registered an Activity in series [2] of 24%. This compound registered a Drug uptake in series [3] of 11.2 uM/ml. This compound registered a Kp at 0.25 h in series [4] of 1.15. This compound displayed a CL in series [5] of 172 µL/min/mg.
Regarding `Cn1c(NCC(=O)c2ccc(F)cc2)nc(-c2ccncc2)cc1=O`, the IC50 was 52 nM in series [1] and 10900 nM in series [6]. In series [5], the CL stood at 166 µL/min/mg.
On the same counts, the results for `Cn1c(NCC(=O)c2cccc(Cl)c2)nc(-c2ccncc2)cc1=O` are 13 nM, 670 nM and 262 µL/min/mg.
Taken in the same sequence, the figures for `Cc1cccc(C(=O)CNc2nc(-c3ccncc3)cc(=O)n2C)c1` were 38 nM, 2200 nM and 262 µL/min/mg.
On the same counts, the results for `Cn1c(NCC(=O)c2cccc(C#N)c2)nc(-c2ccncc2)cc1=O` are 13 nM, more than 53300 nM and 133 µL/min/mg.
With `Cc1nc(-c2ccncc2)cc(=O)[nH]1`, the IC50 in series [1] was found to be 3000 nM.
Still for that read-out and setting: the result for `CCCCc1nc(-c2ccncc2)cc(=O)[nH]1` reads 1300 nM.
The same measure, in the same setting: the result for `CC(C)c1nc(-c2ccncc2)cc(=O)[nH]1` reads 2100 nM.
Same read-out and setting: to `CC(C)Cc1nc(-c2ccncc2)cc(=O)[nH]1` belongs 2400 nM; to `O=c1cc(-c2ccncc2)nc(-c2ccccc2)[nH]1`, 1800 nM; to `O=c1cc(-c2ccncc2)nc(Cc2ccccc2)[nH]1`, 1300 nM.
Take `O=c1cc(-c2ccncc2)nc(CCc2ccccc2)[nH]1`: the IC50 in series [1] was found to be 8900 nM.
On the same count and under the same terms, the result for `O=c1cc(-c2ccncc2)nc(CCCc2ccccc2)[nH]1` reads 500 nM; that for `Cn1c(CCCc2ccccc2)nc(-c2ccncc2)cc1=O`, 90 nM.
As for `CCn1c(CCCc2ccccc2)nc(-c2ccncc2)cc1=O`, the half-inhibitory concentration (IC50) in series [1] was found to be 1900 nM.
Regarding `CCCn1c(CCCc2ccccc2)nc(-c2ccncc2)cc1=O`, the half-maximal inhibitory concentration (IC50) in series [1] came out at 9800 nM.
Still for that read-out and setting: the result for `O=c1cc(-c2ccncc2)nc(CCCc2ccccc2)n1Cc1ccccc1` reads 2200 nM; that for `Cn1c(OCCc2ccccc2)nc(-c2ccncc2)cc1=O`, 200 nM; that for `Cn1c(NCCc2ccccc2)nc(-c2ccncc2)cc1=O`, 70 nM.
The same measure, in the same setting: the result for `Cn1c(NCCC2CCCCC2)nc(-c2ccncc2)cc1=O` reads 39 nM; that for `Cn1c(NCC(O)c2ccccc2)nc(-c2ccncc2)cc1=O` (configuration not stated), 23 nM.
As for `Cn1c(N(CCCCN)CCc2ccccc2)nc(-c2ccncc2)cc1=O`, in series [1], the IC50 was 130 nM.
`Cn1c(N(CCCCCN)CCc2ccccc2)nc(-c2ccncc2)cc1=O`: in series [1], the half-inhibitory concentration (IC50) is 150 nM.
For `Cn1c(NCC(=O)c2ccccc2F)nc(-c2ccncc2)cc1=O`, the values for the IC50 in series [1] and in series [6] were 27 nM and 3800 nM, respectively. In series [5], this compound yielded a CL of 158 µL/min/mg.
Take `Cn1c(NCC(=O)c2cccc(F)c2)nc(-c2ccncc2)cc1=O`: the IC50 in series [1] amounted to 25 nM; in series [6], 4200 nM. The CL in series [5] stood at 207 µL/min/mg.

The IC50 is the point on the concentration scale where inhibition reaches its midpoint.

Values taken from ChEMBL document CHEMBL3091320, “6-(4-Pyridyl)pyrimidin-4(3H)-ones as CNS penetrant glycogen synthase kinase-3β inhibitors” (Bioorg Med Chem Lett, 2013).
